According to patent US20130165520A1, “Hybrid Molecule Having Mixed Retinoic Acid Receptor Agonism and Histone Deacetylase Inhibitory Properties” (priority 2010, published 2013):

Key:
HT29 = HT29 (Colon); 48 h
U251 = U251 (CNS); 48 h
SK-OV-3 = conditions: 48 h
SR [1] = conditions: SR (Leukemia); 48 h
A498 = assay: cells; conditions: Homo sapiens, A498, 48 h
MOLT-4 = MOLT-4 (Leukemia); 48 h
M14 [2] = assay: cells; conditions: Homo sapiens, M14, 48 h
MDA-MB-435 = MDA-MB-435 (Melanoma); 48 h
purified human HDAC6 = purified human HDAC6 (Homo sapiens, UniProt Q9UBN7); assay: Standard fluorescence HDAC assay; type: biochemical; conditions: purified human enzyme, read-out: IC50 against HDAC6
Sequence of purified human HDAC6 (Q9UBN7 whole entry): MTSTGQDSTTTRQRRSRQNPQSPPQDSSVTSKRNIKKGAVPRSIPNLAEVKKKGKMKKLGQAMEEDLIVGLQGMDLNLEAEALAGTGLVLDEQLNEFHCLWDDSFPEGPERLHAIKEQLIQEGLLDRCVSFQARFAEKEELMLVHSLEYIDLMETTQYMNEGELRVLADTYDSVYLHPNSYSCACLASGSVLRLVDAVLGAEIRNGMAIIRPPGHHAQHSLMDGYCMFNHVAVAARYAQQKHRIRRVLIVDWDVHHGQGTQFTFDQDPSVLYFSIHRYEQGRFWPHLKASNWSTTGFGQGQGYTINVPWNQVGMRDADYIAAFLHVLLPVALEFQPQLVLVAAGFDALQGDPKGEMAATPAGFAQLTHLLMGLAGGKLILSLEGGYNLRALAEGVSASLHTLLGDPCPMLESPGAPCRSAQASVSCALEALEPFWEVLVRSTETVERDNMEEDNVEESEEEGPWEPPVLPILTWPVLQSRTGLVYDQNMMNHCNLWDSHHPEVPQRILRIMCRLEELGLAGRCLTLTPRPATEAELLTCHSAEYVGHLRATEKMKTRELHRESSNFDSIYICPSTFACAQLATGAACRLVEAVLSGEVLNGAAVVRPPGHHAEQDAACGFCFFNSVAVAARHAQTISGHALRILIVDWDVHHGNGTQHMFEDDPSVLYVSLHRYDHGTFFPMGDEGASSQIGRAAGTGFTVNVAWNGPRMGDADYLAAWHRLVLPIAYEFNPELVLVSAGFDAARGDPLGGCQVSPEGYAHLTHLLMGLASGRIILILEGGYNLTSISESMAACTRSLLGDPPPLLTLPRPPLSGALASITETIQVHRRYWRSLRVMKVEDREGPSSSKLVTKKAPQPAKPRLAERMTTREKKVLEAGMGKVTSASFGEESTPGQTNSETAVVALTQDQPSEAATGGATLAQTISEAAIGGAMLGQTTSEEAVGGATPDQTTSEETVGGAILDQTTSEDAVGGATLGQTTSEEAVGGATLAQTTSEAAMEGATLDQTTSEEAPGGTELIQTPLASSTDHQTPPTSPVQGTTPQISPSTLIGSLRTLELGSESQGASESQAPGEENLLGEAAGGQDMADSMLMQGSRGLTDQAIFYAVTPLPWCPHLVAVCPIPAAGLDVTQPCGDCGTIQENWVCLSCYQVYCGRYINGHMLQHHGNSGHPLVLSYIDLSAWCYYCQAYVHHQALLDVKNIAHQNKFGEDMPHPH

PC-3 = PC-3 (Prostate); 48 h
HOP-92 = HOP-92 (Non-Small cell lung cancer); 48 h
MDA-MB-468 = assay: cells; conditions: Homo sapiens, MDA-MB-468, 48 h
RXF393 = RXF393 (Renal); 48 h
HL-60(TB) = HL-60(TB) (Leukemia); 48 h
NCI-H522 = assay: cells; conditions: Homo sapiens, NCI-H522, 48 h
RPMI-8226 = RPMI-8226 (Leukemia); 48 h
SF-295 = assay: cells; conditions: Homo sapiens, SF-295, 48 h
SF-539 = assay: cells; conditions: Homo sapiens, SF-539, 48 h
M14 [3] = conditions: M14 (Melanoma); 48 h
HOP-62 [4] = conditions: HOP-62 (Non-Small cell lung cancer); 48 h
SR [5] = assay: cells; conditions: Homo sapiens, 48 h
786-0 = 786-0 (Renal); 48 h
COLO205 [6] = conditions: COLO205 (Colon); 48 h
[7] = tested on: normal human mammary epithelial cells (HMEC); assay: Cell growth measurement; type: cell-based
OVCAR-5 = conditions: 48 h
HCC-2998 = HCC-2998 (Colon); 48 h
NCI-H226 = NCI-H226 (Non-Small cell lung cancer); 48 h
HOP-62 [8] = assay: cells; conditions: Homo sapiens, HOP-62, 48 h
[9] = tested on: non-tumorogenic immortalized mammary 184b5 cells; assay: Cell growth measurement
HCT-15 = HCT-15 (Colon); 48 h
NCI-H460 = assay: cells; conditions: Homo sapiens, NCI-H460, 48 h
COLO205 [10] = assay: cells; conditions: Homo sapiens, COLO 205, 48 h

SMILES: CC1(C)CCC(C)(C)c2cc(-c3ccc4cc(C(=O)NO)ccc4c3)ccc21 [hybrid 3]
- TGI (HT29): 2340 nM
- TGI (U251): 1690 nM
- TGI (SK-OV-3): 11700 nM
- TGI (SR [1]): 1200 nM
- GI50 (A498): 1660 nM
- CC50 (A498; read-out: LC50): 8710 nM
- TGI (MOLT-4): 1460 nM
- GI50 (M14 [2]): 708 nM
- CC50 (M14 [2]; read-out: LC50): 7430 nM
- TGI (MDA-MB-435): 2540 nM
- IC50 (purified human HDAC6): 148 nM
- TGI (PC-3): 4250 nM
- TGI (HOP-92): 6350 nM
- GI50 (MDA-MB-468): 1180 nM
- CC50 (MDA-MB-468; read-out: LC50): 6390 nM
- TGI (RXF393): 2820 nM
- TGI (HL-60(TB)): 1520 nM
- GI50 (NCI-H522): 1620 nM
- CC50 (NCI-H522; read-out: LC50): 7980 nM
- TGI (RPMI-8226): 4390 nM
- GI50 (SF-295): 385 nM
- CC50 (SF-295; read-out: LC50): 6110 nM
- GI50 (SF-539): 699 nM
- CC50 (SF-539; read-out: LC50): 30900 nM
- TGI (M14 [3]): 2490 nM
- TGI (HOP-62 [4]): 2190 nM
- GI50 (SR [5]): 335 nM
- CC50 (SR [5]; read-out: LC50): 7640 nM
- TGI (786-0): 2370 nM
- TGI (COLO205 [6]): 2330 nM
- effect on growth of normal cells [7]: only minimal effects
- TGI (OVCAR-5): 19500 nM
- TGI (HCC-2998): 2510 nM
- TGI (NCI-H226): 4190 nM
- GI50 (HOP-62 [8]): 616 nM
- CC50 (HOP-62 [8]; read-out: LC50): 6180 nM
- effect on growth of non-tumorogenic cells [9]: only minimal effects
- TGI (HCT-15): 2030 nM
- GI50 (NCI-H460): 340 nM
- CC50 (NCI-H460; read-out: LC50): 4040 nM
- GI50 (COLO205 [10]): 797 nM
- CC50 (COLO205 [10]; read-out: LC50): 6020 nM
